Measured values taken from publication PMC8480901 (PLoS ONE, 2021).
Values joined by “and” are separate entries in the source; they are usually repeats but may differ in a detail not shown here. Equal values may be shown once.

Tested on: J774.2 mouse macrophages
Test: LPS-induced cytokine and chemokine levels in J774.2 mouse macrophage cell supernatant (ELISA)
Format: cell-based
Settings: for CXCL1 % reduction / CXCL1 [pg/mL] Mean / CXCL2 % reduction / CXCL2 [pg/mL] Mean / MMP9 % reduction / MMP9 [pg/mL] Mean / CXCL2 / MMP9: J774.2 cells; for CXCL1 % reduction / CXCL1 [pg/mL] Mean / CXCL2 % reduction / CXCL2 [pg/mL] Mean / MMP9 % reduction / MMP9 [pg/mL] Mean / CCl2, % reduction / CCl2, Mean / IL-1β % reduction / IL-6 % reduction / TNF-α % reduction / TNF-α Mean / CCl2 / CXCL1 / TNF-α / CXCL2 / MMP9: LPS; for CCl2, % reduction / CCl2, Mean / IL-1β % reduction / IL-6 % reduction / TNF-α % reduction / TNF-α Mean / CCl2 / CXCL1 / TNF-α: J774.2 supernatant; for CCl2 / CXCL1 / TNF-α / CXCL2 / MMP9: individual replicate

C[C@@H]1C[C@H]2[C@@H]3CCC4=CC(=O)C=C[C@]4(C)[C@@]3(F)[C@@H](O)C[C@]2(C)[C@@]1(O)C(=O)CO [Dexamethasone]
CXCL1 % reduction (compound 0.0003 µM): -75%
CXCL1 [pg/mL] Mean (compound 0.0003 µM): 45 pg/mL
CXCL2 % reduction (compound 0.0003 µM): 24%
CXCL2 [pg/mL] Mean (compound 0.0003 µM): 24934 pg/mL
MMP9 % reduction (compound 0.0003 µM): 2.49%
MMP9 [pg/mL] Mean (compound 0.0003 µM): 941 pg/mL
CXCL1 % reduction (compound 0.001 µM): -60%
CXCL1 [pg/mL] Mean (compound 0.001 µM): 41 pg/mL
CXCL2 % reduction (compound 0.001 µM): 22%
CXCL2 [pg/mL] Mean (compound 0.001 µM): 25589 pg/mL
MMP9 % reduction (compound 0.001 µM): -3.26%
MMP9 [pg/mL] Mean (compound 0.001 µM): 993 pg/mL
CXCL1 % reduction (compound 0.003 µM): -60%
CXCL1 [pg/mL] Mean (compound 0.003 µM): 41 pg/mL
CXCL2 % reduction (compound 0.003 µM): 22%
CXCL2 [pg/mL] Mean (compound 0.003 µM): 25475 pg/mL
MMP9 % reduction (compound 0.003 µM): 0.402%
MMP9 [pg/mL] Mean (compound 0.003 µM): 960 pg/mL
CXCL1 % reduction (compound 0.01 µM): -89%
CXCL1 [pg/mL] Mean (compound 0.01 µM): 48 pg/mL
CXCL2 % reduction (compound 0.01 µM): 23%
CXCL2 [pg/mL] Mean (compound 0.01 µM): 24995 pg/mL
MMP9 % reduction (compound 0.01 µM): -17%
MMP9 [pg/mL] Mean (compound 0.01 µM): 1120 pg/mL
CXCL1 [pg/mL] Mean (compound 0.03 µM): 66 pg/mL
CXCL2 % reduction (compound 0.03 µM): 17%
CXCL2 [pg/mL] Mean (compound 0.03 µM): 26915 pg/mL
MMP9 % reduction (compound 0.03 µM): -7%
MMP9 [pg/mL] Mean (compound 0.03 µM): 1030 pg/mL
CXCL1 % reduction (compound 0.1 µM): -158%
CXCL1 [pg/mL] Mean (compound 0.1 µM): 66 pg/mL
CXCL2 % reduction (compound 0.1 µM): 23%
CXCL2 [pg/mL] Mean (compound 0.1 µM): 25079 pg/mL
MMP9 % reduction (compound 0.1 µM): -12%
MMP9 [pg/mL] Mean (compound 0.1 µM): 1071 pg/mL
CXCL1 % reduction (compound 0.3 µM): -170%
CXCL1 [pg/mL] Mean (compound 0.3 µM): 69 pg/mL
CXCL2 % reduction (compound 0.3 µM): 24%
CXCL2 [pg/mL] Mean (compound 0.3 µM): 24836 pg/mL
MMP9 % reduction (compound 0.3 µM): 4.75%
MMP9 [pg/mL] Mean (compound 0.3 µM): 921 pg/mL
CXCL1 % reduction (compound 1 µM): -156%
CXCL1 [pg/mL] Mean (compound 1 µM): 66 pg/mL
CXCL2 % reduction (compound 1 µM): 21%
CXCL2 [pg/mL] Mean (compound 1 µM): 25750 pg/mL
MMP9 % reduction (compound 1 µM): -12%
MMP9 [pg/mL] Mean (compound 1 µM): 1077 pg/mL
LPS-induced TNF-α, IL-6, and IL-1β in supernatant (J774.2 mouse macrophages, 0.0003-1 µM): dose-dependent reductions
CCl2, % reduction (0.0003 µM): 30%
CCl2, Mean (0.0003 µM): 25543 pg/mL
IL-1β % reduction (0.0003 µM): -32%
IL-6 % reduction (0.0003 µM): -12%
TNF-α % reduction (0.0003 µM): -6.59%
TNF-α Mean (0.0003 µM): 1457 pg/mL
CCl2 (0.0003 µM): 25420.3 pg/mL and 25666.2 pg/mL
CXCL1 (0.0003 µM): 47.7 pg/mL and 41.8 pg/mL
TNF-α (0.0003 µM): 1400.2 pg/mL and 1513.9 pg/mL
CCl2, % reduction (0.001 µM): 27%
CCl2, Mean (0.001 µM): 26540 pg/mL
IL-1β % reduction (0.001 µM): -9%
IL-6 % reduction (0.001 µM): 2.11%
TNF-α Mean (0.001 µM): 1347 pg/mL
CCl2 (0.001 µM): 25719.1 pg/mL and 27360.7 pg/mL
CXCL1 (0.001 µM): 36.1 pg/mL and 45.9 pg/mL
TNF-α (0.001 µM): 1307.1 pg/mL and 1387.6 pg/mL
CCl2, % reduction (0.003 µM): 17%
CCl2, Mean (0.003 µM): 29971 pg/mL
IL-1β % reduction (0.003 µM): 20%
IL-6 % reduction (0.003 µM): -10%
TNF-α % reduction (0.003 µM): 9%
TNF-α Mean (0.003 µM): 1248 pg/mL
CCl2 (0.003 µM): 29318.9 pg/mL and 30622.8 pg/mL
CXCL1 (0.003 µM): 44.3 pg/mL and 37.5 pg/mL
TNF-α (0.003 µM): 1276.5 pg/mL and 1220.4 pg/mL
CCl2, % reduction (0.01 µM): 11%
CCl2, Mean (0.01 µM): 32289 pg/mL
IL-1β % reduction (0.01 µM): 44%
IL-6 % reduction (0.01 µM): 16%
TNF-α % reduction (0.01 µM): 16%
TNF-α Mean (0.01 µM): 1149 pg/mL
CCl2 (0.01 µM): 33314.7 pg/mL and 31263.9 pg/mL
CXCL1 (0.01 µM): 53.3 pg/mL and 43.3 pg/mL
TNF-α (0.01 µM): 1202.6 pg/mL and 1095.5 pg/mL
CCl2, % reduction (0.03 µM): -11%
CCl2, Mean (0.03 µM): 39841 pg/mL
IL-1β % reduction (0.03 µM): 63%
IL-6 % reduction (0.03 µM): 40%
TNF-α % reduction (0.03 µM): 30%
TNF-α Mean (0.03 µM): 960 pg/mL
CCl2 (0.03 µM): 43664.9 pg/mL and 36017.7 pg/mL
CXCL1 (0.03 µM): 62.3 pg/mL and 70.1 pg/mL
TNF-α (0.03 µM): 997.7 pg/mL and 922.4 pg/mL
CCl2, % reduction (0.1 µM): -6%
CCl2, Mean (0.1 µM): 38142 pg/mL
IL-1β % reduction (0.1 µM): 69%
IL-6 % reduction (0.1 µM): 54%
TNF-α % reduction (0.1 µM): 37%
TNF-α Mean (0.1 µM): 868 pg/mL
CCl2 (0.1 µM): 39902.2 pg/mL and 36382.1 pg/mL
CXCL1 (0.1 µM): 70.5 pg/mL and 61.8 pg/mL
TNF-α (0.1 µM): 957.1 pg/mL and 779.4 pg/mL
CCl2, % reduction (0.3 µM): 15%
CCl2, Mean (0.3 µM): 30843 pg/mL
IL-1β % reduction (0.3 µM): 75%
IL-6 % reduction (0.3 µM): 57%
TNF-α % reduction (0.3 µM): 49%
TNF-α Mean (0.3 µM): 706 pg/mL
CCl2 (0.3 µM): 33366.7 pg/mL and 28320.1 pg/mL
CXCL1 (0.3 µM): 70.8 pg/mL and 67.4 pg/mL
TNF-α (0.3 µM): 780.3 pg/mL and 630.8 pg/mL
CCl2, % reduction (1 µM): 14%
CCl2, Mean (1 µM): 31213 pg/mL
IL-1β % reduction (1 µM): 76%
IL-6 % reduction (1 µM): 58%
TNF-α % reduction (1 µM): 52%
TNF-α Mean (1 µM): 671 pg/mL
CCl2 (1 µM): 32973.4 pg/mL and 29452.4 pg/mL
CXCL1 (1 µM): 65.4 pg/mL and 65.8 pg/mL
TNF-α (1 µM): 708.1 pg/mL and 633.8 pg/mL
CXCL2 (compound 0.0003 µM): 24204.6 pg/mL and 25664.1 pg/mL
MMP9 (compound 0.0003 µM): 875.528 pg/mL and 1006.68 pg/mL
CXCL2 (compound 0.001 µM): 24896.6 pg/mL and 26281.1 pg/mL
MMP9 (compound 0.001 µM): 908.955 pg/mL and 1077.76 pg/mL
CXCL2 (compound 0.003 µM): 26063.4 pg/mL and 24885.7 pg/mL
MMP9 (compound 0.003 µM): 895.348 pg/mL and 1024.81 pg/mL
CXCL2 (compound 0.01 µM): 24945.6 pg/mL and 25043.7 pg/mL
MMP9 (compound 0.01 µM): 1078.2 pg/mL and 1162.43 pg/mL
CXCL2 (compound 0.03 µM): 28314.6 pg/mL and 25515.2 pg/mL
MMP9 (compound 0.03 µM): 1067.94 pg/mL and 991.656 pg/mL
CXCL2 (compound 0.1 µM): 25553.8 pg/mL and 24603.6 pg/mL
MMP9 (compound 0.1 µM): 1150.63 pg/mL and 991.656 pg/mL
CXCL2 (compound 0.3 µM): 25702.8 pg/mL and 23968.8 pg/mL
MMP9 (compound 0.3 µM): 877.422 pg/mL and 963.71 pg/mL
CXCL2 (compound 1 µM): 26832.3 pg/mL and 24668.5 pg/mL
MMP9 (compound 1 µM): 1055.41 pg/mL and 1099.09 pg/mL
